Results reported in ChEMBL document CHEMBL4346725, “Molecular design and anticancer activities of small-molecule monopolar spindle 1 inhibitors: A Medicinal chemistry perspective” (Eur J Med Chem, 2019).

Columns and labels:
[1] = target: T1, Dual specificity protein kinase TTK (Homo sapiens, UniProt P33981); assay: Inhibition of glioblastoma patient derived MPS1
T1 sequence (P33981 whole entry): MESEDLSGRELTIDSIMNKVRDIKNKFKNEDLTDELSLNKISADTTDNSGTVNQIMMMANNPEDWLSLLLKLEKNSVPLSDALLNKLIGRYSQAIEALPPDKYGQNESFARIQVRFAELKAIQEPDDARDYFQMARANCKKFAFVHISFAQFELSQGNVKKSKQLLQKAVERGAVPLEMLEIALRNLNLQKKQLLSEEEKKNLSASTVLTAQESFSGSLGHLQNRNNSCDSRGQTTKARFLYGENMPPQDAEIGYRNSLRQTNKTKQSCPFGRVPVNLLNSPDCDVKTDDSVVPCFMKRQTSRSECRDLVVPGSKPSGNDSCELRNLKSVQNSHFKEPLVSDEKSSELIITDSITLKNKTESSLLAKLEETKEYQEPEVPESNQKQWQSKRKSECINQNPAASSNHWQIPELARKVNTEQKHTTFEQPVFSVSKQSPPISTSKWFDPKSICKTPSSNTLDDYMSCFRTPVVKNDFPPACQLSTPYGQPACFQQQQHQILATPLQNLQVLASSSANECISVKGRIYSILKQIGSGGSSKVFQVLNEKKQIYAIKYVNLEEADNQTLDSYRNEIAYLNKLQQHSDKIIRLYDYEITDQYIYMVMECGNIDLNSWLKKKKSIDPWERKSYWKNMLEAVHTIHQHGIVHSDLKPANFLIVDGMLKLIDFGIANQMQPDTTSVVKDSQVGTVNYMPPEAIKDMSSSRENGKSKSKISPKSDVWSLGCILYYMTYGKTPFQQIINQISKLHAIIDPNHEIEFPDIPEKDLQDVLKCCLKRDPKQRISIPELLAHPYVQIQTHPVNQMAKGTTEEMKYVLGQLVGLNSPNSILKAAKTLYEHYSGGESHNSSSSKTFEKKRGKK

[2] = target: T1, Dual specificity protein kinase TTK; assay: Inhibition of MPS1 (unknown origin)
[3] = target: T1, Dual specificity protein kinase TTK; assay: Inhibition of MPS1 (510 to 857 residues) catalytic domain (unknown origin) expressed in Escherichia coli after 15 mins by mass-spectrometry analysis
MDA-MB-231 = assay: Antiproliferative activity against human MDA-MB-231 cells after 7 days by cell titer-glo assay; assay type: functional, cell-based; details: MDA-MB-231, 168 h
A549 = assay: animal or person; details: Mus musculus, A549, po, read-out: TGI
[4] = Half life in mouse at 5 mg/kg, ip; assay type: ADME, organism-based; details: in vivo
[5] = Cmax in mouse at 5 mg/kg, ip; assay type: ADME, organism-based; parameters: dose 5 mg/kg, route intraperitoneal; details: in vivo
[6] = Half life in mouse at 5 mg/kg, iv; assay type: ADME, organism-based; details: in vivo
[7] = Cmax in mouse at 5 mg/kg, iv; assay type: ADME, organism-based; parameters: dose 5 mg/kg, route intravenous; details: in vivo
[8] = Half life in mouse at 5 mg/kg, po; assay type: ADME, organism-based; details: in vivo
[9] = Cmax in mouse at 5 mg/kg, po; assay type: ADME, organism-based; parameters: dose 5 mg/kg, route oral; details: in vivo
[10] = Oral bioavailability in mouse at 5 mg/kg; assay type: ADME, organism-based; details: in vivo
[11] = Bioavailability in mouse at 5 mg/kg, ip; assay type: ADME, organism-based; details: in vivo
[12] = Half life in mouse xenografted with human A2780 cells at 90 mg/kg, po daily administered for 7 consecutive days; assay type: ADME, organism-based; details: in vivo
[13] = Oral bioavailability in mouse xenografted with human A2780 cells at 90 mg/kg daily administered for 7 consecutive days; assay type: ADME, organism-based; details: in vivo
A2780 = assay: Antitumor activity against human A2780 cells xenografted in mouse assessed as tumor growth inhibition at 90 mg/kg, po daily administered for 7 consecutive days relative to control; assay type: functional; details: read-out: TGI
Mus musculus = assay: In vivo inhibition of MPS1 in mouse xenografted with human HCT116 cells at 100 mg/kg, po after 24 hrs by LC-MS analysis relative to control; assay type: functional; details: HCT-116, po
in vivo = details: mouse, ip, 150 mg/kg
HCT-116 [14] = assay: animal or person; details: Mus musculus, HCT-116, ip, read-out: TGI
HCT-116 [15] = assay: animal or person; details: Mus musculus, HCT-116, ip, 96 h, read-out: TGI
COLO 205 = assay: animal or person; details: Mus musculus, COLO 205, ip, 96 h, read-out: TGI
[16] = target: Focal adhesion kinase 1 (Homo sapiens) (UniProt Q05397); assay: Inhibition of FAK (unknown origin) relative to control; details: concentration not given here
[17] = target: Mitogen-activated protein kinase 8 (Homo sapiens) (UniProt P45983); assay: Inhibition of JNK1 (unknown origin) relative to control; details: concentration not given here
[18] = target: Mast/stem cell growth factor receptor Kit (Homo sapiens) (UniProt P10721); assay: Inhibition of KIT (unknown origin) relative to control; details: concentration not given here
[19] = target: Mitogen-activated protein kinase 9 (Homo sapiens) (UniProt P45984); assay: Inhibition of JNK2 (unknown origin) relative to control; details: concentration not given here
Mitogen-activated protein kinase 9 (Homo sapiens), sequence (P45984 whole entry, looked up): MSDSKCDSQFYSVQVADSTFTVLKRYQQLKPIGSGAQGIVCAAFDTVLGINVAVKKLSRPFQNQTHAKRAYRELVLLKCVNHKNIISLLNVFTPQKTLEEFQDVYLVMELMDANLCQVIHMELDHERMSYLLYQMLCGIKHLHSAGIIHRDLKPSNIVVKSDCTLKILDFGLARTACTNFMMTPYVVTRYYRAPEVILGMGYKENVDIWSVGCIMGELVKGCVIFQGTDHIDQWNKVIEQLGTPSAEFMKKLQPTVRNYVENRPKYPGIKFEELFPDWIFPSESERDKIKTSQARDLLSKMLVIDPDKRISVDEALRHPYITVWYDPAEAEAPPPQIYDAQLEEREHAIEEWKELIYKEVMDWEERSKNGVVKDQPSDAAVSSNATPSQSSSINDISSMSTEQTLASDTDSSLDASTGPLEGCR

Mast/stem cell growth factor receptor Kit (Homo sapiens), sequence (P10721 whole entry): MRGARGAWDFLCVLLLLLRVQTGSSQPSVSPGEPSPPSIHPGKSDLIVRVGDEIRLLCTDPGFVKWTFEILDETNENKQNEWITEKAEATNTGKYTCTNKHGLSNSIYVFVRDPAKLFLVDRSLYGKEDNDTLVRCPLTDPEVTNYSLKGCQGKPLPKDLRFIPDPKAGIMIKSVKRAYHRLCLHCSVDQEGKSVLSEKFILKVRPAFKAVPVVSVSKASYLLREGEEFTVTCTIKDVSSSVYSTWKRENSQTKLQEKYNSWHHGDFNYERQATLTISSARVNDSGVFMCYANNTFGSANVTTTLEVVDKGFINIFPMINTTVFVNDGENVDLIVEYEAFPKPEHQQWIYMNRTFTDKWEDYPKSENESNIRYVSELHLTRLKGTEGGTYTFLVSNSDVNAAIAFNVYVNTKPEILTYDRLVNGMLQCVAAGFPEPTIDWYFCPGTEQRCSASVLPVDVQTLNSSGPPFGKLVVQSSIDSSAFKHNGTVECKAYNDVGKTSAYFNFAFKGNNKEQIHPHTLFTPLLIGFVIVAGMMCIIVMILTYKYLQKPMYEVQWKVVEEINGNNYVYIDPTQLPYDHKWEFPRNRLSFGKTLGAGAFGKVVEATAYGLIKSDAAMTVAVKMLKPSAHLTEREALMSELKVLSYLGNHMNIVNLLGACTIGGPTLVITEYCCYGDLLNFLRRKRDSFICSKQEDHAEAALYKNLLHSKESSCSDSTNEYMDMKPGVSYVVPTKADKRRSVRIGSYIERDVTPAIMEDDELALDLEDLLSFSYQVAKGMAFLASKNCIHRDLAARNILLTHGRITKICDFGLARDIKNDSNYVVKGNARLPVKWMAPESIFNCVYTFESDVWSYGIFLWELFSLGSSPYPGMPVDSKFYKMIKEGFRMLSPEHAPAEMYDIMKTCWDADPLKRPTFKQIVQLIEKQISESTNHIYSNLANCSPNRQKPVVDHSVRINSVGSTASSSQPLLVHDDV
Mitogen-activated protein kinase 8 (Homo sapiens), sequence (P45983 whole entry): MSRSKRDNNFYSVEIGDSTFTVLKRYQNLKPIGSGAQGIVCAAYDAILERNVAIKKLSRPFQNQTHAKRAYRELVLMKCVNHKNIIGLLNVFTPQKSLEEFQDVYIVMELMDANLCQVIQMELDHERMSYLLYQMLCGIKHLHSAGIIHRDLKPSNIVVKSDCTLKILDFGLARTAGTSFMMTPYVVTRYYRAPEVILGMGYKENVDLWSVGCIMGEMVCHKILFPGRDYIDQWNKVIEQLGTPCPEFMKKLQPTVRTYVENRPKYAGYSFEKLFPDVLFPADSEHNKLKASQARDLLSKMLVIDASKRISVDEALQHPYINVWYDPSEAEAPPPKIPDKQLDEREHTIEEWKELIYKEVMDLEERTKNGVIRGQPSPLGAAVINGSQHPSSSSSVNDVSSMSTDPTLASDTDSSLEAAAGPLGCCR
Focal adhesion kinase 1 (Homo sapiens), sequence (Q05397 2-1052 limits assumed): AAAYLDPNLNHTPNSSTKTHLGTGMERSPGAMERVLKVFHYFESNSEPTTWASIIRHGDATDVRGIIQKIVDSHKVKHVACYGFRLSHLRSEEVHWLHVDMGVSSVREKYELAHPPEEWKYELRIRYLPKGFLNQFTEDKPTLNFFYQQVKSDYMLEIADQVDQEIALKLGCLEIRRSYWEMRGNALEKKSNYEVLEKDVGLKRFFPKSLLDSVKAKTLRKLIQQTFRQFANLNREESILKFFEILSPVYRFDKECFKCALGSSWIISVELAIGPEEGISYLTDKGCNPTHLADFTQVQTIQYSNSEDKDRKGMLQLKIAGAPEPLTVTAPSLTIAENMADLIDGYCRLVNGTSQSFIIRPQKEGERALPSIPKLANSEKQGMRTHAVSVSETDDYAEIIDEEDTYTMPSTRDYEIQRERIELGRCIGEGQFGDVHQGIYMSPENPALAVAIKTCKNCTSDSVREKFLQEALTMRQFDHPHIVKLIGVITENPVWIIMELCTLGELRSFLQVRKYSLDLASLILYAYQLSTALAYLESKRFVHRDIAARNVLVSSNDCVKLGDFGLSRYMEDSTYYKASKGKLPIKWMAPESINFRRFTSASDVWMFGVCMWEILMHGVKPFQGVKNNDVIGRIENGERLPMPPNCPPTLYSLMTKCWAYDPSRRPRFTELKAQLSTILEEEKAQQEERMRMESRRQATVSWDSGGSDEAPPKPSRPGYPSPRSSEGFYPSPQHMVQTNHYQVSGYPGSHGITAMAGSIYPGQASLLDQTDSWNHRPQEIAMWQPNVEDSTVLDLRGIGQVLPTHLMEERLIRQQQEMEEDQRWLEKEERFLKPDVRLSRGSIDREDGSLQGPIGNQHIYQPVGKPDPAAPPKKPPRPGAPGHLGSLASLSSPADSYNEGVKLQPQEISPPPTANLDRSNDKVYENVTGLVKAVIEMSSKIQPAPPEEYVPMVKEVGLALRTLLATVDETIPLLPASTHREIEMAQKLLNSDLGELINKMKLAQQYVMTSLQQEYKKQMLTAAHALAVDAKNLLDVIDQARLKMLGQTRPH

## COc1cc(N2CCC(O)CC2)ccc1Nc1nc(Nc2ccccc2S(=O)(=O)C(C)C)c2nc[nH]c2n1
[1]
  IC50: 50 nM

## CC(C)CNc1nc(-c2cccc3ncccc23)cn2c(-c3ccc(C(=O)NC4CC4)cc3)cnc12
[2]
  IC50: 9 nM

## Cc1nc(N2CCOCC2)ccc1Nc1nc(NC2CCOCC2)c2c(C#N)c[nH]c2n1
[3]
  IC50: 2.5 nM
  Ki: < 0.5 nM
MDA-MB-231
  IC50: 2 to 6 nM

## CC(C)(C)Nc1nc(Nc2ccc(C(N)=O)cc2)cc(N)c1C#N
A549
  inhibition in vivo at 100 mg/kg: 47%

## CCc1cccc(CC)c1NC(=O)c1ccn2c1CCc1cnc(Nc3ccc(N4CCN(C)CC4)cc3OC)nc1-2
[4]
  half-life: 3.4 h
[5]
  Cmax: 629 nM
[6]
  half-life: 2.9 h
[7]
  Cmax: 3060 nM
[8]
  half-life: 3.9 h
[9]
  Cmax: 188 nM
[10]
  bioavailability: 45.2%
[11]
  bioavailability: 90.3%

## CCc1cccc(CC)c1NC(=O)c1nn(C)c2c1CCc1cnc(Nc3ccc(C(=O)NC4CCN(C)CC4)cc3OC(F)(F)F)nc1-2
[12]
  half-life: 8 h
[13]
  bioavailability: 37.9%
A2780
  inhibition in vivo at 90 mg/kg: 53%

## COc1cc(-c2cnn(C)c2)ccc1Nc1ncc2ccnc(N[C@@H](C)C(C)(C)C)c2n1
Mus musculus
  inhibition in vivo at 100 mg/kg: > 80%

## c1nc2nc(Nc3ccc(N4CCOCC4)cc3)nc(NC3CCCCC3)c2[nH]1 [REVERSINE]
In vivo
  AUC at 96 h: 0.786 ng·h/mL
HCT-116 [14]
  inhibition in vivo at 30 mg/kg: 49%
HCT-116 [15]
  inhibition in vivo at 150 mg/kg: 74%
COLO 205
  inhibition in vivo at 150 mg/kg: 63%

## COc1cc(OC2CCN(C)CC2)ccc1Nc1ncc2c(n1)n(C1CCCC1)c(=O)n2C
[16]
  inhibition: > 40%
[17]
  inhibition: > 40%
[18]
  inhibition: > 40%
[19]
  inhibition: > 40%

## Cc1nc(N2CCOCC2)ccc1Nc1nc(NC(C)(C)CO)c2c(C#N)c[nH]c2n1
[3]
  IC50: 5.5 nM
  Ki: < 0.5 nM

## O=C1c2ccccc2-c2n[nH]c3cccc1c23
[2]
  IC50: 98 nM
